Consider 27 compounds from patent US9603834B2, “1,2- bis-sulfonamide derivatives as chemokine receptor modulators” (Allergan, Inc., priority 2010, dated 2017).

Structures are written as SMILES.

For this assay, the target named is CCR2 (Homo sapiens (Human), UniProt P41597). Nature of the assay: Calcium activity on FLIPR Tetra in HEK-Gqi5 cells stably expressing CCR2. Conditions: FLIPR Tetra calcium assay. It is filed as cell-based. The procedure:
HEK-Gqi5 cells stably expressing CCR2 were cultured in (DMEM high glucose, 10% FBS, 1% PSA, 400 μg/ml geneticin and 50 μg/ml hygromycin. Appropriate positive control chemokines (MCP-1, MIP1A or RANTES) was used as the positive control agonist for screening compound-induced calcium activity assayed on the FLIPR^Tetra. The drug plates were prepared in 384-well microplates using the EP3 and the MultiPROBE robotic liquid handling systems. Compounds were synthesized and tested for CCR2 activity.

Sequence of CCR2 (P41597 whole entry, species assumed): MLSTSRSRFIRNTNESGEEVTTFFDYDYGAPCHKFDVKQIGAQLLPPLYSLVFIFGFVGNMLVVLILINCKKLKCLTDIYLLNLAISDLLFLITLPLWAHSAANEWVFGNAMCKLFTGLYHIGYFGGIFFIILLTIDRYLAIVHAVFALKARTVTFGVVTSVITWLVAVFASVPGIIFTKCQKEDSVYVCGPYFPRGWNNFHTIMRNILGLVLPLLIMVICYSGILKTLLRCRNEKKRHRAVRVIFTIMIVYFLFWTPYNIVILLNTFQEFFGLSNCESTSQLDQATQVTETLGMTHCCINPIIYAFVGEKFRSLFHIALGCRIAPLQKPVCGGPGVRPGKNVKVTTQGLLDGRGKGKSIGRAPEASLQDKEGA

For `O=S(=O)(Nc1cc(Cl)c(Cl)cc1NS(=O)(=O)c1cccc(Cl)c1F)c1cccs1` [N-(4,5-dichloro-2-{[(3-chloro-2-fluorophenyl)sulfonyl]amino}phenyl)thiophene-2-sulfonamide], the “CCR2 % Antagonism” value was determined as 96% and the concentration for half-maximal inhibition (IC50) was determined as 0.217 µM.

Consider `Cc1ccc(S(=O)(=O)Nc2ccc(Cl)cc2NS(=O)(=O)c2cc3ccccc3o2)s1` [N-(5-chloro-2-{[(5-methyl-2-thienyl)sulfonyl]amino}phenyl)-1-benzofuran-2-sulfonamide], for which the “CCR2 % Antagonism” value stood at 96% and the IC50 was determined as 0.339 µM.

For the compound `Cc1nn(C)c(Cl)c1S(=O)(=O)Nc1ccc(Cl)cc1NS(=O)(=O)c1cc2ccccc2o1` [N-{2-[(1-benzofuran-2-ylsulfonyl)amino]-4-chlorophenyl}-5-chloro-1,3-dimethyl-1H-pyrazole-4-sulfonamide], the “CCR2 % Antagonism” value is listed as 80% and the IC50 amounted to 0.294 µM.

For the compound `Cc1ccc(S(=O)(=O)Nc2cc(Cl)c(Cl)cc2NS(=O)(=O)c2cccs2)o1` [N-{4,5-dichloro-2-[(2-thienylsulfonyl)amino]phenyl}-5-methylfuran-2-sulfonamide], the “CCR2 % Antagonism” value is given as 95% and the 50% inhibitory concentration (IC50) is 0.311 µM.

Regarding `O=S(=O)(Nc1ccc(Cl)cc1NS(=O)(=O)c1cccs1)c1cc2ccccc2o1` [N-{4-chloro-2-[(2-thienylsulfonyl)amino]phenyl}-1-benzofuran-2-sulfonamide], the “CCR2 % Antagonism” value turned out to be 90% and the concentration for half-maximal inhibition (IC50) turned out to be 0.145 µM.

Regarding `O=S(=O)(Nc1cc(Cl)c(Cl)cc1NS(=O)(=O)c1cccs1)c1cc2ccccc2o1` [N-{4,5-dichloro-2-[(2-thienylsulfonyl)amino]phenyl}-1-benzofuran-2-sulfonamide], the “CCR2 % Antagonism” value is 100% and the 50% inhibitory concentration (IC50) is 0.096 µM.

As for `O=S(=O)(Nc1cc(Cl)c(Cl)cc1NS(=O)(=O)c1cc(Cl)cc(Cl)c1O)c1cccs1` [N-(4,5-dichloro-2-{[(3,5-dichloro-2-hydroxyphenyl)sulfonyl]amino}phenyl)thiophene-2-sulfonamide], the “CCR2 % Antagonism” value is reported as 82% and the 50% inhibitory concentration (IC50) came out at 0.482 µM.

Consider `Cn1ccc(S(=O)(=O)Nc2ccc(Cl)cc2NS(=O)(=O)c2cc3ccccc3o2)n1` [N-{2-[(1-benzofuran-2-ylsulfonyl)amino]-4-chlorophenyl}-1-methyl-1H-pyrazole-3-sulfonamide], for which the “CCR2 % Antagonism” value is listed as 96% and the 50% inhibitory concentration (IC50) is 0.185 µM.

On to `O=S(=O)(Nc1cc(Cl)c(Cl)cc1NS(=O)(=O)c1ccc(F)cc1F)c1cccs1` [N-(4,5-dichloro-2-{[(2,4-difluorophenyl)sulfonyl]amino}phenyl)thiophene-2-sulfonamide], for which the “CCR2 % Antagonism” value is listed as 89% and the IC50 turned out to be 0.451 µM.

As to `Cc1cc(S(=O)(=O)Nc2cc(Cl)c(Cl)cc2NS(=O)(=O)c2cccs2)ccc1Br` [N-(2-{[(4-bromo-3-methylphenyl)sulfonyl]amino}-4,5-dichlorophenyl)thiophene-2-sulfonamide], the “CCR2 % Antagonism” value came to 91% and the IC50 was found to be 0.471 µM.

With `O=S(=O)(Nc1cc(Cl)c(Cl)cc1NS(=O)(=O)c1cc2ccccc2s1)c1cccs1` [N-{4,5-dichloro-2-[(2-thienylsulfonyl)amino]phenyl}-1-benzothiophene-2-sulfonamide], the “CCR2 % Antagonism” value came to 94% and the IC50 was 0.494 µM.

In the case of `O=S(=O)(Nc1cc(Cl)c(Cl)cc1NS(=O)(=O)c1cccs1)c1ccc(Cl)c(Cl)c1` [N-(4,5-dichloro-2-{[(3,4-dichlorophenyl)sulfonyl]amino}phenyl)thiophene-2-sulfonamide], the “CCR2 % Antagonism” value was 79% and the IC50 turned out to be 0.394 µM.

For the compound `O=S(=O)(Nc1cc(Cl)ccc1NS(=O)(=O)c1c(Cl)cccc1Cl)c1cc2ccccc2o1` [N-(5-chloro-2-{[(2,6-dichlorophenyl)sulfonyl]amino}phenyl)-1-benzofuran-2-sulfonamide], the “CCR2 % Antagonism” value was 89% and the IC50 amounted to 0.478 µM.

With `Cn1cnc(S(=O)(=O)Nc2ccc(Cl)cc2NS(=O)(=O)c2cc3ccccc3o2)c1` [N-{2-[(1-benzofuran-2-ylsulfonyl)amino]-4-chlorophenyl}-1-methyl-1H-imidazole-4-sulfonamide], the “CCR2 % Antagonism” value was determined as 110% and the half-inhibitory concentration (IC50) came out at 0.423 µM.

With `O=S(=O)(Nc1cccnc1NS(=O)(=O)c1cccs1)c1ccc(Cl)c(C(F)(F)F)c1` [N-[3-({[4-chloro-3-(trifluoromethyl)phenyl]sulfonyl}amino)pyridin-2-yl]thiophene-2-sulfonamide], the “CCR2 % Antagonism” value is listed as 85% and the 50% inhibitory concentration (IC50) turned out to be 0.349 µM.

On to `O=S(=O)(Nc1cc(Cl)c(Cl)cc1NS(=O)(=O)c1cccs1)c1ccc(F)c(C(F)(F)F)c1` [N-[4,5-dichloro-2-({[4-fluoro-3-(trifluoromethyl)phenyl]sulfonyl}amino)phenyl]thiophene-2-sulfonamide], for which the “CCR2 % Antagonism” value came to 89% and the IC50 amounted to 0.432 µM.

Regarding `O=S(=O)(Nc1cc(Cl)c(Cl)cc1NS(=O)(=O)c1ccccc1F)c1cccs1` [N-(4,5-dichloro-2-{[(2-fluorophenyl)sulfonyl]amino}phenyl)thiophene-2-sulfonamide], the “CCR2 % Antagonism” value worked out at 67% and the IC50 was 0.402 µM.

Consider `O=S(=O)(Nc1cc(Cl)c(Cl)cc1NS(=O)(=O)c1cccs1)c1ccc(Cl)nc1` [6-chloro-N-{4,5-dichloro-2-[(2-thienylsulfonyl)amino]phenyl}pyridine-3-sulfonamide], for which the “CCR2 % Antagonism” value was 100% and the half-maximal inhibitory concentration (IC50) came out at 0.281 µM.

For `Cc1n[nH]c(C)c1S(=O)(=O)Nc1ccc(Cl)cc1NS(=O)(=O)c1cc2ccccc2o1` [N-{2-[(1-benzofuran-2-ylsulfonyl)amino]-4-chlorophenyl}-3,5-dimethyl-1H-pyrazole-4-sulfonamide], the “CCR2 % Antagonism” value is given as 108% and the IC50 came out at 0.183 µM.

On to `COC(=O)c1sccc1S(=O)(=O)Nc1ccc(Cl)cc1NS(=O)(=O)c1cc2ccccc2o1` [methyl 3-[({2-[(1-benzofuran-2-ylsulfonyl)amino]-4-chlorophenyl}amino)sulfonyl]thiophene-2-carboxylate], for which the “CCR2 % Antagonism” value turned out to be 96% and the IC50 amounted to 0.246 µM.

With `O=S(=O)(Nc1cc(Cl)c(Cl)cc1NS(=O)(=O)c1cccs1)c1ccc(F)cc1` [N-(4,5-dichloro-2-{[(4-fluorophenyl)sulfonyl]amino}phenyl)thiophene-2-sulfonamide], the “CCR2 % Antagonism” value stood at 91% and the IC50 was 0.441 µM.

Regarding `O=S(=O)(Nc1cc(Cl)ccc1NS(=O)(=O)c1cccs1)c1cc2ccccc2o1` [N-{5-chloro-2-[(2-thienylsulfonyl)amino]phenyl}-1-benzofuran-2-sulfonamide], the “CCR2 % Antagonism” value was 86% and the half-inhibitory concentration (IC50) came to 0.02 µM.

Regarding `O=S(=O)(Nc1cc(Cl)c(Cl)cc1NS(=O)(=O)c1cccs1)c1cccc(Cl)c1` [N-(4,5-dichloro-2-{[(3-chlorophenyl)sulfonyl]amino}phenyl)thiophene-2-sulfonamide], the “CCR2 % Antagonism” value is reported as 90% and the IC50 amounted to 0.391 µM.

Take `O=S(=O)(Nc1cc(Cl)c(Cl)cc1NS(=O)(=O)c1ccc(Cl)cc1F)c1cccs1` [N-(4,5-dichloro-2-{[(4-chloro-2-fluorophenyl)sulfonyl]amino}phenyl)thiophene-2-sulfonamide]: the “CCR2 % Antagonism” value turned out to be 94% and the half-inhibitory concentration (IC50) is 0.361 µM.

With `O=S(=O)(Nc1cc(Cl)ccc1NS(=O)(=O)c1c(F)cccc1F)c1cc2ccccc2o1` [N-(5-chloro-2-{[(2,6-difluorophenyl)sulfonyl]amino}phenyl)-1-benzofuran-2-sulfonamide], the “CCR2 % Antagonism” value was 99% and the 50% inhibitory concentration (IC50) is 0.153 µM.

Regarding `O=S(=O)(Nc1cc(Cl)c(Cl)cc1NS(=O)(=O)c1ccc(Cl)s1)c1cccs1` [5-chloro-N-{4,5-dichloro-2-[(2-thienylsulfonyl)amino]phenyl}thiophene-2-sulfonamide], the “CCR2 % Antagonism” value is 89% and the half-maximal inhibitory concentration (IC50) was 0.263 µM.

As to `O=S(=O)(Nc1cc(Cl)c(Cl)cc1NS(=O)(=O)c1cccs1)c1cccc(C(F)(F)F)c1` [N-[4,5-dichloro-2-({[3-(trifluoromethyl)phenyl]sulfonyl}amino)phenyl]thiophene-2-sulfonamide], the “CCR2 % Antagonism” value is on record as 88% and the IC50 is 0.306 µM.
